Experimental data reported in PubChem BioAssay (NCI).
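Tested at 5 concentrations; 48 h exposure; 96-well plates; endpoints linearly interpolated, else capped at highest concentration. GI50 is the concentration that inhibits growth by half. TGI denotes the concentration required for complete inhibition of growth.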

Legend:
Experiment in all cases: NCI tumour cell line growth inhibition, 48 h
A549 NSCLC = test system: A549 NSCLC
LOX IMVI melanoma = test system: LOX IMVI melanoma
RXF 393 renal = test system: RXF 393 renal
IGROV1 ovarian = test system: IGROV1 ovarian
SF-539 CNS = test system: SF-539 CNS
A498 renal = test system: A498 renal
HCT-116 colon = test system: HCT-116 colon
HCC-2998 colon = test system: HCC-2998 colon
NCI-H226 lung = test system: NCI-H226 lung
HCT-15 colon = test system: HCT-15 colon
OVCAR-4 ovarian = test system: OVCAR-4 ovarian
CCRF-CEM leukemia = test system: CCRF-CEM leukemia
SK-MEL-28 melanoma = test system: SK-MEL-28 melanoma
RPMI-8226 leukemia = test system: RPMI-8226 leukemia
KM12 colon = test system: KM12 colon
BT-549 breast = test system: BT-549 breast
OVCAR-5 ovarian = test system: OVCAR-5 ovarian
T-47D breast = test system: T-47D breast
TK-10 renal = test system: TK-10 renal
SNB-19 CNS = test system: SNB-19 CNS
MOLT-4 leukemia = test system: MOLT-4 leukemia
DU-145 prostate = test system: DU-145 prostate
SF-295 CNS = test system: SF-295 CNS
UACC-62 melanoma = test system: UACC-62 melanoma
SK-OV-3 ovarian = test system: SK-OV-3 ovarian
SK-MEL-5 melanoma = test system: SK-MEL-5 melanoma
MDA-MB-468 breast = test system: MDA-MB-468 breast
NCI-H23 lung = test system: NCI-H23 lung
NCI/ADR-RES ovarian = test system: NCI/ADR-RES ovarian
UACC-257 melanoma = test system: UACC-257 melanoma
OVCAR-3 ovarian = test system: OVCAR-3 ovarian
SW-620 colon = test system: SW-620 colon
PC-3 prostate = test system: PC-3 prostate
EKVX NSCLC = test system: EKVX NSCLC
COLO 205 colon = test system: COLO 205 colon
HL-60(TB) leukemia = test system: HL-60(TB) leukemia
MCF7 breast = test system: MCF7 breast
HT29 colon = test system: HT29 colon
MALME-3M melanoma = test system: MALME-3M melanoma
SN12C renal = test system: SN12C renal
ACHN renal = test system: ACHN renal
SF-268 CNS = test system: SF-268 CNS
MDA-MB-435 = test system: MDA-MB-435
786-0 renal = test system: 786-0 renal
HOP-92 NSCLC = test system: HOP-92 NSCLC
HS 578T breast = test system: HS 578T breast
OVCAR-8 ovarian = test system: OVCAR-8 ovarian
K-562 leukemia = test system: K-562 leukemia
U251 CNS = test system: U251 CNS
SR leukemia = test system: SR leukemia
CAKI-1 renal = test system: CAKI-1 renal
NCI-H460 lung = test system: NCI-H460 lung
HOP-62 NSCLC = test system: HOP-62 NSCLC
M14 melanoma = test system: M14 melanoma
NCI-H522 lung = test system: NCI-H522 lung

CS(=O)(=O)Nc1ccc(-c2ccc3c(c2)ncn3-c2ccc(NC(=O)Nc3ccc(Br)cc3)cc2)cc1
GI50 (A549 NSCLC): 2.44 µM | TGI (A549 NSCLC): > 72.3 µM | GI50 (LOX IMVI melanoma): 2.64 µM | TGI (LOX IMVI melanoma): 44.3 µM | GI50 (RXF 393 renal): 1.16 µM | TGI (RXF 393 renal): 4.56 µM | GI50 (IGROV1 ovarian): 3.17 µM | TGI (IGROV1 ovarian): > 72.3 µM | GI50 (SF-539 CNS): 0.83 µM | TGI (SF-539 CNS): 7.64 µM | GI50 (A498 renal): 3.42 µM | TGI (A498 renal): 21.5 µM | GI50 (HCT-116 colon): 2.33 µM | TGI (HCT-116 colon): > 72.3 µM | GI50 (HCC-2998 colon): 3.32 µM | TGI (HCC-2998 colon): > 72.3 µM | GI50 (NCI-H226 lung): 3.08 µM | TGI (NCI-H226 lung): > 72.3 µM | GI50 (HCT-15 colon): 2.4 µM | TGI (HCT-15 colon): > 72.3 µM | GI50 (OVCAR-4 ovarian): 3.13 µM | TGI (OVCAR-4 ovarian): > 72.3 µM | GI50 (CCRF-CEM leukemia): 2.12 µM | TGI (CCRF-CEM leukemia): 7.23 µM | GI50 (SK-MEL-28 melanoma): 2.18 µM | TGI (SK-MEL-28 melanoma): > 72.3 µM | GI50 (RPMI-8226 leukemia): 1.52 µM | TGI (RPMI-8226 leukemia): 3.85 µM | GI50 (KM12 colon): 0.336 µM | TGI (KM12 colon): > 72.3 µM | GI50 (BT-549 breast): 2.64 µM | TGI (BT-549 breast): 12.8 µM | GI50 (OVCAR-5 ovarian): 3.4 µM | TGI (OVCAR-5 ovarian): > 72.3 µM | GI50 (T-47D breast): 2.75 µM | TGI (T-47D breast): > 72.3 µM | GI50 (TK-10 renal): 3.32 µM | TGI (TK-10 renal): > 72.3 µM | GI50 (SNB-19 CNS): 2.57 µM | TGI (SNB-19 CNS): > 72.3 µM | GI50 (MOLT-4 leukemia): 1.37 µM | TGI (MOLT-4 leukemia): 4.31 µM | GI50 (DU-145 prostate): 3.36 µM | TGI (DU-145 prostate): > 72.3 µM | GI50 (SF-295 CNS): 1.57 µM | TGI (SF-295 CNS): 4.41 µM | GI50 (UACC-62 melanoma): 2.25 µM | TGI (UACC-62 melanoma): 9.2 µM | GI50 (SK-OV-3 ovarian): 2.92 µM | TGI (SK-OV-3 ovarian): > 72.3 µM | GI50 (SK-MEL-5 melanoma): 2.35 µM | TGI (SK-MEL-5 melanoma): 7.81 µM | GI50 (MDA-MB-468 breast): 2.26 µM | TGI (MDA-MB-468 breast): 10.9 µM | GI50 (NCI-H23 lung): 2.57 µM | TGI (NCI-H23 lung): > 72.3 µM | GI50 (NCI/ADR-RES ovarian): 10.8 µM | TGI (NCI/ADR-RES ovarian): > 72.3 µM | GI50 (UACC-257 melanoma): 2.17 µM | TGI (UACC-257 melanoma): 7.89 µM | GI50 (OVCAR-3 ovarian): 2.76 µM | TGI (OVCAR-3 ovarian): > 72.3 µM | GI50 (SW-620 colon): 3.05 µM | TGI (SW-620 colon): > 72.3 µM | GI50 (PC-3 prostate): 2.69 µM | TGI (PC-3 prostate): > 72.3 µM | GI50 (EKVX NSCLC): 2.4 µM | TGI (EKVX NSCLC): > 72.3 µM | GI50 (COLO 205 colon): 2.59 µM | TGI (COLO 205 colon): > 72.3 µM | GI50 (HL-60(TB) leukemia): 1.49 µM | TGI (HL-60(TB) leukemia): 3.33 µM | GI50 (MCF7 breast): 1.81 µM | TGI (MCF7 breast): 7.89 µM | GI50 (HT29 colon): 2.43 µM | TGI (HT29 colon): > 72.3 µM | GI50 (MALME-3M melanoma): 1.95 µM | TGI (MALME-3M melanoma): 5.94 µM | GI50 (SN12C renal): 2.37 µM | TGI (SN12C renal): > 72.3 µM | GI50 (ACHN renal): 2.55 µM | TGI (ACHN renal): 12.3 µM | GI50 (SF-268 CNS): 3.41 µM | TGI (SF-268 CNS): > 72.3 µM | GI50 (MDA-MB-435): 2.62 µM | TGI (MDA-MB-435): > 72.3 µM | GI50 (786-0 renal): 2.25 µM | TGI (786-0 renal): 16 µM | GI50 (HOP-92 NSCLC): 3.39 µM | TGI (HOP-92 NSCLC): > 72.3 µM | GI50 (HS 578T breast): 2.42 µM | TGI (HS 578T breast): > 72.3 µM | GI50 (OVCAR-8 ovarian): 2.81 µM | TGI (OVCAR-8 ovarian): > 72.3 µM | GI50 (K-562 leukemia): 1.88 µM | TGI (K-562 leukemia): 4.91 µM | GI50 (U251 CNS): 2.4 µM | TGI (U251 CNS): > 72.3 µM | GI50 (SR leukemia): 1.39 µM | TGI (SR leukemia): 3.47 µM | GI50 (CAKI-1 renal): 6 µM | TGI (CAKI-1 renal): > 72.3 µM | GI50 (NCI-H460 lung): 2.64 µM | TGI (NCI-H460 lung): > 72.3 µM | GI50 (HOP-62 NSCLC): 2.54 µM | TGI (HOP-62 NSCLC): 13 µM | GI50 (M14 melanoma): 2.36 µM | TGI (M14 melanoma): > 72.3 µM | GI50 (NCI-H522 lung): 2.11 µM | TGI (NCI-H522 lung): 31.2 µM
